Data: patent publication US9808466B2, “Macrocyclic compounds as protein kinase inhibitors” (Fundación Centro Nacional de Investigaciones Oncologicas …, priority 2011, dated 2017)
Where two headings read alike, the source gives them in different places.

Key:
PI3K (p110α/p85α) = biological target: T1, PI3K (p110α/p85α) (Homo sapiens, UniProt P42336); test: PI3K activity assay (ADP Hunter Plus); format: biochemical
T1 construct: purchased Carna Biosciences 07CBS-0402A
Method in brief: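 ADP accumulation measured by coupled fluorescence (ex 544/em 580 nm) after a 1 h kinase reaction at 25 °C, then 30 min at 37 °C with detection reagents. Activity normalised to no-compound control (100%) and IC50 from sigmoid dose-response fit.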

mTOR = biological target: T2, mTOR (Homo sapiens, UniProt P42345); test: mTOR assay (LanthaScreen kinase activity assay); format: biochemical
T2 construct: purchased Invitrogen PV4754

PIM-1 = biological target: T3, PIM-1 (Homo sapiens, UniProt P11309); test: PIM-1 biochemical assay (ADP Hunter)
T3 construct: histidine tag (C); made in house
Method in brief: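 Recombinant His-tagged human PIM-1 (50 pg/μl) with PIMtide peptide (60 μM) and 100 μM ATP in HEPES pH 7.4 buffer with MgCl2, 60 min at 30° C, DMSO below 2%. ADP formed detected by coupled ADP Hunter reaction as resorufin fluorescence (Ex 544/Em 580 nm).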

[1] = Pharmacokinetic in BALB-c female mice, i.v. and oral; format: in vivo; conditions: for AUC(0-inf) / half-life / clearance / MRT / Vd / bioavailability / Cmax: mouse; for half-life: read-out: T½ last (plasmatic half life) (converted); for clearance: read-out: Cl (plasmatic clearance) (converted); for MRT: read-out: MRT (Mean residence time); for Vd: read-out: Vd (volume of distribution); for bioavailability: read-out: F % (bioavailability); for Cmax: read-out: C max (maximum plasma concentration after oral administration)
Description: Experiments were done using BALB-c female mice, 10 weeks old. Compounds were dissolved in selected vehicles at a concentration calculated in order to administer the dose selected in 0.1 mL. Animals were administered by i.v and oral route (by gavage), and sacrificed at different time points (n=3 at each time point). Time points were 0.08, 0.25, 0.5, 1, 4 and 8 h for the i.v branch, and 0.08, 0.16, 0.25, 0.5, 1, 4, 8 and 24 h for oral branch. Blood was collected and processed for plasma which was analyzed and quantified by means of tandem mass spectrometry coupled with liquid chromatography. Pharmacokinetic parameters were estimated by fitting the experimental data to a compartmental model using Winnonlin software for pharmacokinetic analysis.

[2] = read-out: PI3K alpha activity, IC50 (semi-quantitative class)
[3] = read-out: PI3K alpha actual IC50 (in parentheses)
[4] = read-out: mTOR activity, IC50 (semi-quantitative class)
[5] = PIM1, read-out: PIM-1 activity, IC50 (semi-quantitative class)
[6] = iv, I.V, dose 5.00 mg/Kg, plasma
[7] = plasma, iv, I.V, dose 5.00 mg/Kg
[8] = plasma, po, P.O dose 10.00 mg/Kg vs I.V 5.00 mg/Kg
[9] = po, P.O, dose 10.00 mg/Kg, plasma
[10] = read-out: mTOR actual IC50 (in parentheses)
[11] = iv, I.V, dose 1.00 mg/Kg, plasma
[12] = plasma, iv, I.V, dose 1.00 mg/Kg
[13] = po, P.O, dose 3.00 mg/Kg, plasma
[14] = read-out: PI3K alpha IC50 (in parentheses)
[15] = read-out: PI3K alpha activity (semi-quantitative IC50)
[16] = read-out: mTOR activity (semi-quantitative IC50)
[17] = read-out: PIM-1 activity (semi-quantitative IC50)
[18] = read-out: PIM-1 IC50 (in parentheses)

T2 sequence (P42345 1360-2549 limits assumed): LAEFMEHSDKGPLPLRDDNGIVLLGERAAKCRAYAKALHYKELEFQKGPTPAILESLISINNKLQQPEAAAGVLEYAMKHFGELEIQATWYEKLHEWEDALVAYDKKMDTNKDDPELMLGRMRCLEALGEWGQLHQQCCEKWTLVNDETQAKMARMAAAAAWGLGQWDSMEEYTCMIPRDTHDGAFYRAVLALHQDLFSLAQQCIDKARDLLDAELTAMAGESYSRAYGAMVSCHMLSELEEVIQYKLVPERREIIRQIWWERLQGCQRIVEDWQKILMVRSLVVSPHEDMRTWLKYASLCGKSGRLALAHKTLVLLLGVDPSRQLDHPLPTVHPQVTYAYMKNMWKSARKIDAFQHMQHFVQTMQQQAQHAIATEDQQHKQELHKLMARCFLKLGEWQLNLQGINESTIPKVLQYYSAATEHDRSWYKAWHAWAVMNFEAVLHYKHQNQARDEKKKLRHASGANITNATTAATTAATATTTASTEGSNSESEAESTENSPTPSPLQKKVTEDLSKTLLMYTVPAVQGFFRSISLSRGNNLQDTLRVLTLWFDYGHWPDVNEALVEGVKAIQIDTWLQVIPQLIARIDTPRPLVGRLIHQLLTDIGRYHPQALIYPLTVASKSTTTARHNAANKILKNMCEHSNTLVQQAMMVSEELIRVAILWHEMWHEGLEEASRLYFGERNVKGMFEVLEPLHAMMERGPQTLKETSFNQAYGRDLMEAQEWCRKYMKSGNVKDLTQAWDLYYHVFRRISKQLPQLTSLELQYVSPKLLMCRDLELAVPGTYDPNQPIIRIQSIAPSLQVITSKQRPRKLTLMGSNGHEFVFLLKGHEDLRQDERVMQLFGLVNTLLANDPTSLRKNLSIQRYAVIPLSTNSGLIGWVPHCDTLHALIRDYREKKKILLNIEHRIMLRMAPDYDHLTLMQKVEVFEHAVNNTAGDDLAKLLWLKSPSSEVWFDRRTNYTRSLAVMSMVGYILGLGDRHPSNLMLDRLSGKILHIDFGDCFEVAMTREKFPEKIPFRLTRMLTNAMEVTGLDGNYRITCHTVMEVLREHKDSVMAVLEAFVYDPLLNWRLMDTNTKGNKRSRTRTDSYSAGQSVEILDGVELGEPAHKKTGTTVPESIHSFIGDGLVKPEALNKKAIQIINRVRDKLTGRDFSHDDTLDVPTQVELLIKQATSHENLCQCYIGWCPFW
T3 sequence (P11309 whole entry): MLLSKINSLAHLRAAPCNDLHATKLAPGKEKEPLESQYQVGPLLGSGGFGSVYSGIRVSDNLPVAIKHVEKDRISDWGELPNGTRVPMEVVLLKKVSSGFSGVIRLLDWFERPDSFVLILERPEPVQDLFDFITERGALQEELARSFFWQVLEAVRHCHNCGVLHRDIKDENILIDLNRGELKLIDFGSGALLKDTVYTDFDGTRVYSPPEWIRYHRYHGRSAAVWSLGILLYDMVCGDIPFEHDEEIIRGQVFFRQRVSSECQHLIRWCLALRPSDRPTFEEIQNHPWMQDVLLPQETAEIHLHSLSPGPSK
T1 sequence (P42336 whole entry): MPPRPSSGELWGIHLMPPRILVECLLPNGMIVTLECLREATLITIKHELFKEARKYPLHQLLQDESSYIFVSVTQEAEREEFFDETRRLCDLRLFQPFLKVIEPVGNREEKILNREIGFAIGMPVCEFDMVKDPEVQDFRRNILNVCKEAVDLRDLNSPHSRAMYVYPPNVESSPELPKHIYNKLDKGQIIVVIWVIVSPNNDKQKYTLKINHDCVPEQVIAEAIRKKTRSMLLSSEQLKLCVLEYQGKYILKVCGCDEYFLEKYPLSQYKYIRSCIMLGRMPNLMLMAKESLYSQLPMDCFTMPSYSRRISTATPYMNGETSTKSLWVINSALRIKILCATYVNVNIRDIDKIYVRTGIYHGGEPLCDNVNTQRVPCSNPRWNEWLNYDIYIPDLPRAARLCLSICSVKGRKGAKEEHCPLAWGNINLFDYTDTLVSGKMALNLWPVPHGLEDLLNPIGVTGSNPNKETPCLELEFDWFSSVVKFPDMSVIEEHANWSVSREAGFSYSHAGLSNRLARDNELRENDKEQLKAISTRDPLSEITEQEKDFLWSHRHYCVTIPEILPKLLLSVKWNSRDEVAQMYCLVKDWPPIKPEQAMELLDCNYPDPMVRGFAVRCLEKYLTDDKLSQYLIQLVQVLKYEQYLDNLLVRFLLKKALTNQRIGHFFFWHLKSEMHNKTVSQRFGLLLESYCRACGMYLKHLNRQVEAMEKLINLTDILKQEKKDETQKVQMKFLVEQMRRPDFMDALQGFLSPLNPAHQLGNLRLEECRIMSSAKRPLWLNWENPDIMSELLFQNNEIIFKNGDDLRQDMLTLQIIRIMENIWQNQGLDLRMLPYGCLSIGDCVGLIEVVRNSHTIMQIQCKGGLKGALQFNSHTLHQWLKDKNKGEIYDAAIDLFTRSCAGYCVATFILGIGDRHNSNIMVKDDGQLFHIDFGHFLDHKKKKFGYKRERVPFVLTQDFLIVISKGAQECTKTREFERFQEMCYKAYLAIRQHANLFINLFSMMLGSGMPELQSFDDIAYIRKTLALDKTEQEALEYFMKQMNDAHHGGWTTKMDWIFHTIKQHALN
T1 sequence (P27986 whole entry partner): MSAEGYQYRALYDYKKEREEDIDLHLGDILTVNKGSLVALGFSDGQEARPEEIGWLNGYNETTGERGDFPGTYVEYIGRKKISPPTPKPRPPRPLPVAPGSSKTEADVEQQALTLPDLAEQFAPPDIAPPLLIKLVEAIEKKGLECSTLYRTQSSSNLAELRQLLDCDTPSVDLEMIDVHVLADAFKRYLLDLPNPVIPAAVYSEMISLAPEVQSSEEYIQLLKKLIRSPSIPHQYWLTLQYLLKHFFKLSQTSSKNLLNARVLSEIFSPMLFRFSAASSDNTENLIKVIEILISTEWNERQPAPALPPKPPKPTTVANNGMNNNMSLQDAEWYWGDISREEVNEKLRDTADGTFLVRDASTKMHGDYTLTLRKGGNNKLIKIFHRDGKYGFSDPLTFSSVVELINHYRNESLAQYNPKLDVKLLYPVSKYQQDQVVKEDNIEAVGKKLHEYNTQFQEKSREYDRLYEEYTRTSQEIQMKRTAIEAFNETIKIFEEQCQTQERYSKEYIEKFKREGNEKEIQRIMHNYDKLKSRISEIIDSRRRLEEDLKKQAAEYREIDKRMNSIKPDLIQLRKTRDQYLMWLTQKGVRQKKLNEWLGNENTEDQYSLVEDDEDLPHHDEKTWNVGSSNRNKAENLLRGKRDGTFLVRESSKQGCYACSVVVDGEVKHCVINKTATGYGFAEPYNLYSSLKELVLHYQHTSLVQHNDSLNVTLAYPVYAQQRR

Row | Compound | IC50 (PI3K (p110α/p85α); [2]) [nM] | IC50 (PI3K (p110α/p85α); [3]) [nM] | IC50 (mTOR; [4]) [nM] | IC50 (PIM-1; [5]) [nM] | AUC(0-inf) [1, 6] [ng·h/mL] | half-life [1, 6] [h] | clearance [1, 7] [mL/min/kg] | MRT [1, 7] [h] | Vd [1, 7] [L/kg] | bioavailability [1, 8] [%] | AUC(0-inf) [1, 9] [ng·h/mL] | Cmax [1, 9] [ng/mL] | IC50 (mTOR; [10]) [nM] | IC50 (PI3K (p110α/p85α); [14]) [nM] | IC50 (PI3K (p110α/p85α); [15]) [nM] | IC50 (mTOR; [16]) [nM] | IC50 (PIM-1; [17]) [nM] | IC50 (PIM-1; [18]) [nM] | also measured
1 | COc1ncc2cc1NS(=O)(=O)c1cccc(c1)C(=O)NCc1cccc(c1)-c1ccnc3ccc-2cc13 [compound 3] | < 100 | 1.6 | 100 to 1000 | > 1000 | 23700 | 1.41 | 6 | 1.27 | 0.46 | 101 | 48100 | 12400 | – | – | – | – | – | – | –
2 | COc1ncc2cc1NS(=O)(=O)c1cc(c(F)cc1F)C(=O)NCc1cncc(c1)-c1ccnc3ccc-2cc13 [compound 10] | < 100 | 0.03 | < 100 | > 1000 | – | – | – | 0.53 | 0.28 | 39.9 | 7560 | 3390 | 22 | – | – | – | – | – | Cl (plasmatic clearance) ([1]; I.V, dose 5.00 mg/Kg): 8.83 mL/min/kg; AUC inf ([1]; I.V, dose 5.00 mg/Kg, plasma): 9467.60 ng·h/mL; T½ last (plasmatic half life) ([1]; I.V, dose 5.00 mg/Kg, plasma): 0.57 h
3 | COc1ncc2cc1NS(=O)(=O)c1cccc(c1)C(=O)NCc1cccc(c1)-c1cnn3ccc-2nc13 [compound 16] | < 100 | 0.9 | < 100 | > 1000 | 23600 | 2.23 | 4.5 | 3.33 | 0.99 | 123 | 29200 | 4820 | 4 | – | – | – | – | – | –
4 | COc1ncc2cc1NS(=O)(=O)c1cccc(c1)C(=O)NCc1cccc(c1)-c1ncnc3ccc-2cc13 [compound 22] | < 100 | 0.1 | – | > 1000 | 66900 | 3.42 | 1.17 | 4.94 | 0.37 | 33.5 | 44800 | 15000 | – | – | – | – | – | – | –
5 | COc1ncc2cc1NS(=O)(=O)c1cccc(c1)C(=O)NCc1cncc(c1)-c1ccnc3ccc-2nc13 [compound 31] | < 100 | 2 | < 100 | > 1000 | 8930 | 0.39 | 11.5 | 0.81 | 0.56 | 34 | 6080 | 1640 | 23 | – | – | – | – | – | –
6 | COc1ncc2cc1NS(=O)(=O)c1cccc(c1)C(=O)NCCn1cc(cn1)-c1ncnc3ccc-2cc13 [compound 33] | < 100 | 1.3 | < 100 | > 1000 | 9160 | 2.91 | 10 | 1.87 | 1.12 | 48.1 | 8810 | 1270 | 4.8 | – | – | – | – | – | –
7 | COc1ncc2cc1NS(=O)(=O)c1cccc(c1)C(=O)N1CCc3ccc(cc3C1)-c1ccnc3ccc-2cc13 [compound 39] | < 100 | 0.05 | < 100 | > 1000 | – | – | – | – | – | – | – | – | 0.3 | – | – | – | – | – | AUC(0-inf) [1, 11]: 4460 ng·h/mL; half-life [1, 11]: 1.66 h; clearance [1, 12]: 4.17 mL/min/kg; MRT [1, 12]: 2.39 h; Vd [1, 12]: 0.59 L/kg; bioavailability ([1]; plasma, po, P.O dose 3.00 mg/Kg vs I.V 1.00 mg/Kg): 26.8%; AUC(0-inf) [1, 13]: 3580 ng·h/mL; Cmax [1, 13]: 962 ng/mL
8 | COc1ncc2cc1NS(=O)(=O)c1cccc(c1)C(=O)NCC1=CC=C(S1)c1ncnc3c1SC2=C3C [compound 68] | < 100 | 2.5 | < 100 | < 100 | 16600 | 3.15 | 0.667 | 10.9 | 0.49 | 34.5 | 57300 | 2930 | 90 | – | – | – | – | – | IC50 (PIM-1; PIM1, read-out: PIM-1 actual IC50 (in parentheses)): 28 nM
9 | COCCOc1ccc2cc1C(=O)NCC1=CC=C(S1)c1ncnc3c1SC(=C3C)c1cnc(OC)c(c1)NS2(=O)=O [compound 95] | – | – | – | – | – | – | – | – | – | – | – | – | – | 20 | < 100 | > 1000 | 100 to 1000 | – | –
10 | COc1ccc2cc1C(=O)NCC1=CC=C(S1)c1ncnc3c1SC(=C3)c1cnc(OC)c(c1)NS2(=O)=O [compound 97] | – | – | – | – | – | – | – | – | – | – | – | – | – | – | 100 to 1000 | > 1000 | < 100 | 62 | –
11 | COc1ncc2cc1NS(=O)(=O)c1ccc(Cl)c(c1)C(=O)NCC1=CC=C(S1)c1ncnc3c1SC2=C3 [compound 98] | – | – | – | – | – | – | – | – | – | – | – | – | – | 37 | < 100 | > 1000 | < 100 | 13 | –
12 | COc1ncc2cc1NS(=O)(=O)c1cccc(c1)C(=O)NC[C@H]1CCN(C1)c1ncnc3c1SC2=C3C [compound 99] | – | – | – | – | – | – | – | – | – | – | – | – | – | 43 | < 100 | > 1000 | < 100 | 53 | –
13 | COc1ccc2cc1C(=O)NCC1=CC=C(S1)c1ncnc3c1SC(=C3C)c1cnc(OC)c(c1)NS2(=O)=O [compound 100] | – | – | – | – | – | – | – | – | – | – | – | – | – | 3.3 | < 100 | > 1000 | < 100 | 31 | –
14 | COc1ncc2cc1NS(=O)(=O)c1cccc(c1)C(=O)NCC1=CC=C(S1)c1ccnc3c1SC2=C3C [compound 101] | – | – | – | – | – | – | – | – | – | – | – | – | – | 26 | < 100 | > 1000 | < 100 | 21 | –
15 | COc1ncc2cc1NS(=O)(=O)c1ccc(Cl)c(c1)C(=O)NCC1=CC=C(S1)c1ccnc3c1SC2=C3C [compound 102] | – | – | – | – | – | – | – | – | – | – | – | – | – | 0.1 | < 100 | < 100 | < 100 | 9.5 | IC50 (mTOR; read-out: mTOR IC50 (in parentheses)): 28 nM
